# Experimental data reported in patent US20120107323A1, “KINASE PROTEIN BINDING INHIBITORS” (University of Florida, priority 2009, published 2012).
# Experiments:
# [1] = tested on: KYSE70 esophageal cancer cells; assay: Cell viability (MTT), KYSE70; assay type: cell-based
# Protocol: Cell viability (MTT) and CFSE Proliferation assay: Cells were plated in 96-well plates and let adhere overnight. After cell treatment, cell viability was measured by 3-(4,5-dimethylthiazol-2-yl)-2,5-diphenyl tetrazolium bromide (MTT) assay (CellTiter 96® Aqueous, Promega, Madison, Wis.).
# Cell viability and detachment assays: After cells were treated with siRNA transfection, cell viability was measured by 3-(4,5-dimethylthiazol2-yl)-2,5-diphenyl tetrazolium bromide (MTT) assay (CellTiter 96® AQueous, Promega, Madison, Wis.). Briefly, 20 μl of the tetrazolium compound was added to each well. The cells were then incubated at 37° C. for 1 h. The plate was read at 490 nm with a plate reader to determine the viability. In detachment assays, detached and attached cells were harvested separately and counted in a hemocytometer. The percentage of detachment was calculated by dividing the number of detached cells by the total number of cells. Apoptosis assays: After treatment, attached and detached cells were collected, counted and prepared for terminal uridine deoxynucleotidyl transferase (TUNEL) assay by utilizing an APO-BRDU kit (BD Pharmingen, San Diego, Calif.) according to the manufacturer's instructions. Stained cells were analyzed with a fluorescence-activated cell sorting-Calibur flow cytometer (BD Biosciences). Calculation of the percentage of apoptotic cells in the sample was completed with CellQuest software (BD Biosciences). Apoptotic cells were also analyzed by Hoechst staining. Hoechst 33342 ([…]) was added to the fixed cells and the specimens were mounted on glass coverslips. The slides were viewed under the Zeiss microscope for apoptotic nuclei. The percent of apoptotic cells was calculated as the ratio of apoptotic cells to total number of cells.
# In addition, the effect of INT2-31 on cell viability of esophageal, pancreatic and breast cancer cell lines was analyzed and the IC50 value for each cell line was determined, as shown in Table 1. […] Similar to melanoma results, INT2-31 inhibits viability more in cancer cells compared to normal cells. Sensitivity of the cells to INT2-31 varied and directly correlated to the FAK and IGF-1R expression level of the cells.
# C8161 subcutaneous tumor = assay: C8161 melanoma xenograft in nude mice; assay type: in vivo
# Protocol: Kinase Profiler Screening: Kinase specificity screening was performed with Invitrogen's SelectScreen® Kinase Profiling Services http://www.invitrogen.com/site/us/en/home/Products-and-Services/Services/Discoverv-Research/SelectScreen-Profiling-Service/SelectScreen-Kinase-Profiling-Service.html. The screening was performed with 1 μM compound, INT2-31, 10 μM ATP, and kinase substrates against ten recombinant kinases according to Z′-LYTET™ Kinase Assay. For PI3 kinase activity, 100 μM ATP, and kinase substrate were utilized with the Invitrogen Adapta® Universal Kinase Assay protocol. Tumor Growth in Nude Mice in vivo: Six week old athymic, female nude mice were purchased from Harlan Laboratory. The mice were maintained in the animal facility, and all experiments were performed in compliance with NIH animal-use guidelines and under an IACUC approved protocol. Melanoma cells were injected, 5×10^6 cells, subcutaneously. When the tumor size reached 100 mm^3, the INT2-31 was introduced by intraperitoneal injection at a dose of 15 mg/kg daily for 21 days. Tumor diameters were measured with calipers, and tumor volume in mm^3 was calculated using the formula [(width)^2×length]/2. At the end of experiment, tumor weight and volume were determined.
# For the melanoma study, the University of Florida IACUC approved the following protocol (IACUC Study #200801077). Melanoma cells were injected, 5×10^6 cells, subcutaneously. When the tumor size reached 100 mm^3, the INT2-31 was introduced by intraperitoneal injection at a dose of 15 mg/kg daily. Tumor diameters were measured with calipers, and tumor volume in mm^3 was calculated using the formula [(width)^2×length]/2. At the end of experiment, tumor weight and volume were determined.
# Immunohistochemistry: Xenograft tumor tissue was fixed in 10% formalin and embedded in paraffin. For Ki-67 staining, samples underwent deparaffinization and antigen retrieval and incubated with the primary antibody, Ki-67 (Dako M7240), at 1:200 concentration overnight at 4° C. The tissues were stained with the chromogen DAB and counterstained with hematoxylin and 1% TBS.
# For assessment of apoptotic cells, staining was performed utilizing the Dead End™ Calorimetric TUNEL System (Promega, Madison, Wis.) according to instructions from the manufacturer. Percent apoptotic cells were determined from counting at least 400 cells in a high power field.
compound,measurement,setting,value
"CSc1ncnc2c1ccn2C1O[C@H](COP(=O)(O)O)[C@@H](O)[C@H]1O (stereo partly drawn) [INT2-31, 4-(Methylthio)-7-(5-O-phosphono-D-ribofuranosyl)-{7H-Pyrrolo[2,3-d]pyrimidine}]",IC50,"[1]; Homo sapiens, KYSE-70, KYSE70, 72 hours, read-out: IC50 of INT2-31, cell viability",4.6 µM
same,effect of combination with 5-FU on cell viability,"[1]; KYSE 70, 0.5 and 1 μM INT2-31",synergistic effects
same,sensitivity of cells to single-agent treatment,"[1]; KYSE 70, 72 hours",sensitive
same,phosphorylation of AKT in tumor,"C8161 subcutaneous tumor; 15 mg/kg vs PBS control, Western blot",decrease in phosphorylation of AKT
same,subcutaneous tumor growth compared to PBS control,"C8161 subcutaneous tumor; C8161, 15 mg/kg daily intraperitoneal, 21 days, p<0.05",significant decrease
same,body weights between animals in each group,"C8161 subcutaneous tumor; C8161 and A375 xenograft mice, 15 mg/kg",no significant difference
same,intensity of Ki67 staining,"C8161 subcutaneous tumor; C8161 tumors, 15 mg/kg vs PBS",significantly decreased
same,percent of cells reactive to Ki67,"C8161 subcutaneous tumor; C8161 tumors, 15 mg/kg vs PBS",significantly decreased
same,percent of cells undergoing apoptosis (TUNEL),"C8161 subcutaneous tumor; C8161 tumors, 15 mg/kg vs control, p<0.05",significantly increased
same,"densitometry, mean ratio of IGF-1R to FAK in tumor","C8161 subcutaneous tumor; C8161 tumors, immunoprecipitation of FAK, PBS 0.98+/−0.11, p=0.09",0.78+/−0.16
